Measurements reported in US7763615B2, “Ecteinascidin analogs for use as antitumour agents” (priority 2001, dated 2010).
Where two headings read alike, the source gives them in different places.

How the values were obtained:
[1] = tested on: L8, normal rat skeletal muscle cells; conditions: 24 h
Description: (§8) In order to assess the cytotoxicity of the drugs to normal cells, we used 96 well plates plated at a density of 5000 cells per well (except for the FDC-P1 which were plated at 12,000 cells per well) with normal cell lines (ATCC, Table 1) maintained as per the directions of the ATCC: AML-12, normal mouse liver cells; NRK-52E, normal rat kidney cells; L8, normal rat skeletal muscle cells; FDC-P1, normal mouse myelogeous stem cells; and H9c2 (2-1), normal rat cardiac muscle cells. The cells in each plate were permitted to settle overnight before adding the test drug.
(§9) To each well (100 μl medium) 10 μl of drug in media was added at varying concentrations (1×10-10-0.01 mg/ml final concentration) and further incubated overnight at 37° C. with 5% CO2. After 24 h the following assays were performed. All experiments were repeated at least 3 times and were assayed in duplicate.
(§10) MTS assay (CellTiter 96 aqueous) was performed according to the manufacturer's (Promega) directions (for all cell types). Cell viability (mitochondrial activity) is determined via enzymatic conversion of the formazan substrate.

SK-OV3 = assay: Inhibition of cells growth by colorimetric assay (SRB), SK-OV3; assay type: cell-based
Description: (§1) The finality of these assays is to interrupt the growth of a “in vitro” tumor cell culture by means of a continued exhibition of the cells to the sample to be testing.
(§2) A colorimetric type of assay, using sulphorhodamine B (SRB) reaction has been adapted for a quantitative measurement of cell growth and viability [following the technique described by Philip Skehan, et al. (1990), New colorimetric cytotoxicity assay for anticancer drug screening, J. Natl. Cancer Inst., 82:1107-1112]
(§3) This form of the assay employs 96 well cell culture microplates of 9 mm diameter (Faircloth, 1988; Mosmann, 1983). Most of the cell lines are obtained from American Type Culture Collection (ATCC) derived from different human cancer types.
(§4) Cells are maintained in RPMI 1640 10% FBS, supplemented with 0.1 g/l penicillin and 0.1 g/l streptomycin sulphate and then incubated at 37° C., 5% CO2 and 98% humidity. For the experiments, cells were harvested from subconfluent cultures using trypsin and resuspended in fresh medium before plating.
(§5) Cells are seeded in 96 well microtiter plates, at 5×10^3 cells per well in aliquots of 195 μl medium, and they are allowed to attach to the plate surface by growing in drug free medium for 18 hours. Afterward, samples are added in aliquots of 5 μl in a ranging from 10 to 10^−8 μg/ml, dissolved in DMSO/EtOH/PBS (0.5:0.5:99). After 48 hours exposure, the antitumor effect are measured by the SRB methodology: cells are fixed by adding 50 μl of cold 50% (wt/vol) trichloroacetic acid (TCA) and incubating for 60 minutes at 4° C. Plates are washed with deionized water and dried. One hundred μl of SRB solution (0.4% wt/vol in 1% acetic acid) is added to each microtiter well and incubated for 10 minutes at room temperature. Unbound SRB is removed by washing with 1% acetic acid. Plates are air dried and bound stain is solubilized with Tris buffer. Optical densities are read on a automated spectrophotometric plate reader at a single wavelength of 490 nm.
(§6) The values for mean+/− SD of data from triplicate wells are calculated. Some parameters for cellular responses can be calculated: GI=growth inhibition, TGI=total growth inhibition (cytostatic effect) and LC=cell killing (cytotoxic effect).

LNCAP = assay: cells; assay type: cell-based
In short: (§7)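 Readout: SRB OD490, triplicate wells. Setup: 5×10^3 cells/well, RPMI 1640 + 10% FBS, 37° C, 5% CO2; 18 h pre-attachment; 48 h sample exposure, 10 to 10^−8 μg/ml. Outputs GI, TGI (cytostatic), LC (cytotoxic).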

DU145 = assay: cells; assay type: cell-based
In short: as §7

PANC-1 = assay: cells; assay type: cell-based; conditions: PANC-1, 48 hours exposure, SRB; for CC50: read-out: LC50
In short: as §7

IGROV = assay: cells; assay type: cell-based; conditions: for GI50 / TGI: 48 hours exposure, SRB; for CC50: read-out: LC50, 48 hours exposure, SRB
In short: as §7

SK-BR3 = assay: cells; assay type: cell-based; conditions: SK-BR3, 48 hours exposure, SRB; for CC50: read-out: LC50
In short: as §7

LOVO-DOX = assay: cells; assay type: cell-based
In short: as §7

A549 = assay: cells; assay type: cell-based; conditions: A549, 48 hours exposure, SRB; for GI50: read-out: GI50; for CC50: read-out: LC50
In short: as §7

K562 = assay: cells; assay type: cell-based; conditions: K562, 48 hours exposure, SRB; for CC50: read-out: LC50
In short: as §7

MEL-28 = assay: cells; assay type: cell-based; conditions: MEL-28, 48 hours exposure, SRB; for CC50: read-out: LC50
In short: as §7

IGROV-ET = assay: cells; assay type: cell-based
In short: as §7

HT29 = assay: cells; assay type: cell-based
In short: as §7

LOVO = assay: cells; assay type: cell-based
In short: as §7

[2] = tested on: AML-12, normal mouse liver cells; conditions: 24 h
Description: as §8, §9, §10

H-MEC-1 = assay: Inhibition of cells growth by colorimetric assay (SRB), H-MEC-1; assay type: cell-based
Description: as §1, §2, §3, §4, §5, §6

[3] = tested on: NRK-52E, normal rat kidney cells; conditions: 24 h
[4] = tested on: FDC-P1, normal mouse myelogeous stem cells; conditions: 24 h
[5] = tested on: H9c2 (2-1), normal rat cardiac muscle cells; conditions: 24 h
[6] = Homo sapiens, LNCaP, 48 h, 48 hours exposure, SRB
[7] = LOVO-DOX, 48 hours exposure, SRB
[8] = IGROV-ET, 48 hours exposure, SRB
[9] = Homo sapiens, HT-29, 48 h, HT29, 48 hours exposure, SRB
[10] = Homo sapiens, LoVo, 48 h, 48 hours exposure, SRB
[11] = H-MEC-1, 48 hours exposure, SRB

In the case of `COc1c(C)cc2c(c1O)[C@@H]1C3[C@@H]4SC[C@]5(NC(C)Cc6c5[nH]c5ccc(O)cc65)C(=O)COC[C@@H](c5c6c(c(C)c(OC(C)=O)c54)OCO6)N3[C@@H](O)[C@H](C2)N1C` (stereo partly shown) [Compound 37], the Skeletal [1] is reported as 2.22E−08, the GI50 (SK-OV3; Homo sapiens, SK-OV-3, 48 h, SK-OV3, 48 hours exposure, SRB) is reported as 3.57 nM and the CC50 (SK-OV3; Homo sapiens, SK-OV-3, 48 h, read-out: LC50, SK-OV3, 48 hours exposure, SRB) is reported as 12.7 µM. For the same molecule, the TGI (SK-OV3; SK-OV3, 48 hours exposure, SRB) was 1.07E−08 Molar, the GI50 (LNCAP; [6]) was 0.26 nM and the IC (TGI) (LNCAP; [6]) was 856 pM. The CC50 (LNCAP; Homo sapiens, LNCaP, 48 h, read-out: LC50, LNCAP, 48 hours exposure, SRB) was 4.75 nM, the GI50 (DU145; DU145, 48 hours exposure, SRB) was 4.6 nM and the IC (TGI) (DU145; Homo sapiens, DU-145, 48 h, DU145, 48 hours exposure, SRB) was 0.0106 µM. The CC50 (DU145; Homo sapiens, DU-145, 48 h, read-out: LC50, DU145, 48 hours exposure, SRB) was 12.7 µM, the GI50 (PANC-1; Homo sapiens, PANC-1, 48 h) was 3.12 nM and the IC (TGI) (PANC-1; Homo sapiens, PANC-1, 48 h) was 0.0118 µM. The CC50 (PANC-1) was 3020 nM, the GI50 (IGROV) was 2.82 nM and the TGI (IGROV) was 7.06E−09 Molar. For the same molecule, the CC50 (IGROV) was 613 nM, the GI50 (SK-BR3) was 2.96 nM and the TGI (SK-BR3) was 6.80E−09 Molar. It also gave a CC50 (SK-BR3) of 141 nM, a GI50 (LOVO-DOX; Homo sapiens, 48 h, LOVO-DOX, 48 hours exposure, SRB) of 61.7 nM and a CC50 (LOVO-DOX; Homo sapiens, 48 h, read-out: LC50, LOVO-DOX, 48 hours exposure, SRB) of 12.7 µM. The TGI (LOVO-DOX; [7]) was 4.10E−07 Molar, the TGI (A549) was 2.17E−08 Molar and the GI50 (A549; Homo sapiens, A549, 48 h) was 4.23 nM. For the same molecule, the CC50 (A549) was 138 nM, the GI50 (K562; Homo sapiens, K562, 48 h) was 0.492 nM and the IC (TGI) (K562; Homo sapiens, K562, 48 h) was 1.36 nM. The CC50 (K562) was 12.7 nM, the GI50 (MEL-28; Homo sapiens, SK-MEL-28, 48 h) was 2.4 nM and the IC (TGI) (MEL-28; Homo sapiens, SK-MEL-28, 48 h) was 6.82 nM. It also gave a CC50 (MEL-28) of 33.5 nM, an IC (TGI) (IGROV-ET; Homo sapiens, 48 h, IGROV-ET, 48 hours exposure, SRB) of 0.119 µM and a CC50 (IGROV-ET; Homo sapiens, 48 h, read-out: LC50, IGROV-ET, 48 hours exposure, SRB) of 12.7 µM. It also gave a GI50 (IGROV-ET; [8]) of 37.6 nM, a GI50 (HT29; [9]) of 3.71 nM and an IC (TGI) (HT29; [9]) of 0.014 µM. The CC50 (HT29; Homo sapiens, HT-29, 48 h, read-out: LC50, HT29, 48 hours exposure, SRB) was 12.7 µM, the GI50 (LOVO; [10]) was 2.92 nM and the IC (TGI) (LOVO; [10]) was 8.97 nM. The CC50 (LOVO; Homo sapiens, LoVo, 48 h, read-out: LC50, LOVO, 48 hours exposure, SRB) was 12.7 µM, the Liver [2] was 5.46E−09 and the TGI (H-MEC-1; [11]) was 3.58E−08 Molar. The GI50 (H-MEC-1; Homo sapiens, HMEC-1, 48 h, H-MEC-1, 48 hours exposure, SRB) was 2.22 nM, the CC50 (H-MEC-1; Homo sapiens, HMEC-1, 48 h, read-out: LC50, H-MEC-1, 48 hours exposure, SRB) was 12.7 µM and the Kidney [3] was 2.92E−08. For the same molecule, the Myelo [4] was 4.59E−09 and the Heart [5] was 1.74E−08.

With `COc1c(C)cc2c(c1O)[C@@H]1C3[C@@H]4SC[C@]5(NC(C)Cc6c5[nH]c5ccc(O)cc65)C(=O)COC[C@@H](c5c6c(c(C)c(OC(C)=O)c54)OCO6)N3[C@@H](O)[C@H](C2)N1C` (stereo partly shown) [Compound 38] the Skeletal [1] was 1.29E−08, the GI50 (SK-OV3; SK-OV3, 48 hours exposure, SRB) was 2.55 nM and the TGI (SK-OV3; SK-OV3, 48 hours exposure, SRB) was 7.13E−09 Molar. For the same molecule, the CC50 (SK-OV3; read-out: LC50, SK-OV3, 48 hours exposure, SRB) was 12.7 µM, the GI50 (LNCAP; LNCAP, 48 hours exposure, SRB) was 0.2 nM and the TGI (LNCAP; LNCAP, 48 hours exposure, SRB) was 7.21E−10 Molar. For the same molecule, the CC50 (LNCAP; read-out: LC50, LNCAP, 48 hours exposure, SRB) was 3.07 nM, the GI50 (DU145; DU145, 48 hours exposure, SRB) was 2.04 nM and the TGI (DU145; DU145, 48 hours exposure, SRB) was 6.80E−09 Molar. The CC50 (DU145; read-out: LC50, DU145, 48 hours exposure, SRB) was 12.7 µM, the GI50 (PANC-1) was 3.22 nM and the TGI (PANC-1) was 8.37E−09 Molar. The CC50 (PANC-1) was 428 nM, the GI50 (IGROV) was 0.757 nM and the TGI (IGROV) was 2.89E−09 Molar. For the same molecule, the CC50 (IGROV) was 8.4 nM, the GI50 (SK-BR3) was 1.07 nM and the TGI (SK-BR3) was 3.38E−09 Molar. It also gave a CC50 (SK-BR3) of 9.54 nM, a GI50 (LOVO-DOX; [7]) of 55.3 nM and a TGI (LOVO-DOX; [7]) of 8.42E−07 Molar. It also gave a CC50 (LOVO-DOX; read-out: LC50, LOVO-DOX, 48 hours exposure, SRB) of 12.7 µM, a TGI (A549) of 5.24E−09 Molar and a GI50 (A549) of 2.38 nM. It also gave a CC50 (A549) of 11.5 nM, a GI50 (K562) of 0.422 nM and a TGI (K562) of 8.18E−10 Molar. It also gave a CC50 (K562) of 3.15 nM, a GI50 (MEL-28) of 2.73 nM and a TGI (MEL-28) of 5.33E−09 Molar. For the same molecule, the CC50 (MEL-28) was 10.4 nM, the GI50 (IGROV-ET; [8]) was 15.7 nM and the TGI (IGROV-ET; [8]) was 6.59E−08 Molar. The CC50 (IGROV-ET; read-out: LC50, IGROV-ET, 48 hours exposure, SRB) was 6.51 µM, the GI50 (HT29; HT29, 48 hours exposure, SRB) was 4.2 nM and the TGI (HT29; HT29, 48 hours exposure, SRB) was 1.69E−08 Molar. The CC50 (HT29; read-out: LC50, HT29, 48 hours exposure, SRB) was 12.7 µM, the GI50 (LOVO; LOVO, 48 hours exposure, SRB) was 3.55 nM and the TGI (LOVO; LOVO, 48 hours exposure, SRB) was 1.03E−08 Molar. The CC50 (LOVO; read-out: LC50, LOVO, 48 hours exposure, SRB) was 12.7 µM, the Liver [2] was 1.39E−10 and the GI50 (H-MEC-1; [11]) was 3.06 nM. The TGI (H-MEC-1; [11]) was 8.93E−09 Molar, the CC50 (H-MEC-1; read-out: LC50, H-MEC-1, 48 hours exposure, SRB) was 12.7 µM and the Kidney [3] was 9.85E−08. For the same molecule, the Myelo [4] was 9.66E−11 and the Heart [5] was 2.96E−09.
